Where only a bound is given, the exact number is not on record here.

Holding throughout (format): physicochemical
A short description of data set [1]: removal of water of crystallization from amoxicilline trihydrate by a drying agent in a tightly sealing glass vessel. On the procedure: In a tightly sealing glass vessel, two Arcellas having 3.5 g trimagnesium dicitrate, dried at 130° C., or having 1.264 g amoxicilline trihydrate (water content 13.1%) are placed side by side and stored at 25° C. After 14 days, the weight of amoxicilline is only 1,105 g whereas the weight of trimagnesium dicitrate is 3.66 g. The amoxicilline released 12.6% water of crystallization which was absorbed by the drying agent. The new drying agent is active such that it virtually split off the entire water of crystallization of amoxicilline (theoretical value: 12.9%).
If this experiment is repeated with the known drying agent silica gel, the antibiotic only loses 0.1% weight after 25 days. This means that the dried trimagnesium dicitrate according to the invention represents an extremely potent drying agent.
Under precisely equal test conditions, the amoxicilline only loses 9.0% with calcium chloride dried at 130° C. after 26 days/25° C.

Data set [2] in a line: weight increase on storage at 25° C./15% relative humidity over 27 days. The note with it: substances dried at 130° C. for 5 hours (sorbitol: 70° C.). On the procedure:
The substances were dried at 130° C. for 5 hours (sorbitol: 70° C.) and the drying loss was determined. Then, the weight increase of the individual substances was determined at 25° C./15% relative humidity over 27 days.

Data set [3] in a line: drying loss determination on a drying balance. The note with it: for drying loss at 130° C./30 min: substances dried at 130° C. for 5 hours (sorbitol: 70° C.). Here is the method: drying loss in %=mass of the water in the sample/total mass of the sample×100
In order to determine the drying loss of a sample (e.g. a solid medicinal form), the sample is spread over a so-called drying balance and (e.g. by an accurately working infrared radiator) adjusted to the desired temperature, e.g. of 105° C. After a certain time (e.g. after 20 or 30 minutes), the drying loss due to the evaporation of water is directly read off the balance in percent. Unless otherwise specified in this application, the expression “drying loss” refers to the drying loss determined under the conditions of 105° C./30 min. A suitable device for measuring of the drying loss is the Moisture Analyzer HR83 of Mettler-Toledo company (CH-8606 Greifensee, Switzerland). The device or the drying balance is preferably used in a closed interior having an ambient temperature of 20° C. and 20% relative humidity.

The nature of data set [4]: relative equilibrium moisture content in sealed measuring cell (HygroLab, AWVC cell). The note with it: for equilibrium moisture: substances dried at 130° C. for 5 hours (sorbitol: 70° C.). On the procedure:
In connection with the present invention it is, however, very important to have a method furnishing information on the bonding mechanism of water and the strength of the water bond. For this purpose, the so-called “relative equilibrium moisture content” (hereinafter also abbreviated as “equilibrium moisture content”) is measured which forms on the sample in a fully sealed measuring cell at a certain temperature. It is also referred to as equilibrium activity or water activity. The water activity describes the bond strength of water to the active ingredient and/or the individual components of the active ingredient mixture. The measured value for the water activity and/or for the equilibrium moisture (Equilibrium Relative Humidity) has a decisive influence on the chemical stability of a moisture-sensitive active ingredient which is embedded in a solid form, such as granules, a capsule or tablet.
The equilibrium moisture content is the value of the relative humidity in which a hygroscopic product can be stored without a net moisture exchange taking place between the product and its environment. Thus, if a solid form has an equilibrium moisture content of 10% and is stored at a relative humidity of 15%, it absorbs water from its environment, if the relative moisture of the environment is below 10%, the solid form releases water to its environment and becomes even drier.
Unless otherwise specified, the equilibrium moisture content is determined as follows in a thermostated small, tightly sealed measuring cell having a volume of about 50 ml. In the upper part of this measuring cell there is a sensor which can measure the relative moisture content resulting from the evaporation of water from the sample to be measured (the device HygroLab having the AWVC measuring cell of Rotronic company, CH 8303 Bassersdorf, Switzerland, is used) The device is officially calibrated and the measuring inaccuracy is no more than +1% relative humidity or +0.3° C. The measuring accuracy can be repeated at any time with standardized salt solutions as known to the person skilled in the art. The measurement takes place at 25° C.

[5] abbreviates: measuring cell thermostated to 25° C.
Where [6] appears, read: measured at 150° C./30 min, after drying at 130° C. for several hours.
Where [7] appears, read: after drying at 130° C. for several hours.

Turning to `CC1(C)S[C@@H]2[C@H](NC(=O)[C@H](N)c3ccc(O)cc3)C(=O)N2[C@H]1C(=O)O` [amoxicilline, amoxicilline trihydrate], the “weight of amoxicilline after storage” value in data set [1] (1.264 g at start, beside 3.5 g dried trimagnesium dicitrate, 14 days, 25° C.) is on record as 1,105 g. The weight loss in data set [1] (drying agent calcium chloride dried at 130° C., after 26 days/25° C.) came out at 9.0%; in data set [1] (drying agent silica gel, after 25 days) it was 0.1%. Besides, the “water of crystallization released” value in data set [1] (drying agent trimagnesium dicitrate dried at 130° C., 14 days, 25° C.) was found to be 12.6%.
Turning to `OC[C@@H](O)[C@@H](O)[C@H](O)[C@@H](O)CO` [sorbitol], the “weight increase (%) with storage at 15% relative humidity/25° C.” value in data set [2] came out at 0.1%. Further, the “drying loss at 130° C./30 min” value in data set [3] came out at 0.1. The compound further had an equilibrium moisture in data set [4] of 9%.
`O=S(=O)([O-])[O-].[Na+].[Na+]` [Sodium sulfate, reference compound]: in data set [3] (testing period 30 min), the “drying loss at 130° C.” value is reported as 0.06%. The compound further registered an equilibrium moisture content in data set [4] (setting [5]) of 32.7%.
`O=C(O)CC(O)(CC(=O)O)C(=O)O` [citric acid] displayed a drying loss in data set [3] (measured at 70° C./30 min) of 0.2%. The compound also registered an equilibrium moisture content in data set [4] (setting [5]) of 63%.
With `O=C([O-])CC(O)(CC(=O)[O-])C(=O)[O-].O=C([O-])CC(O)(CC(=O)[O-])C(=O)[O-].[Mg+2].[Mg+2].[Mg+2]` [trimagnesium dicitrate], the “weight increase (%) with storage at 15% relative humidity/25° C.” value in data set [2] amounted to 8.6%. The compound further came in with a drying loss in data set [3] (setting [6]) of 1.6%. The “drying loss at 130° C./30 min” value in data set [3] came out at 0.2. For the same compound, the “weight of trimagnesium dicitrate after storage” value in data set [1] (3.5 g at start, dried at 130° C., beside amoxicilline trihydrate, 14 days, 25° C.) is listed as 3.66 g. Also, the equilibrium moisture content in data set [4] (setting [7]) is recorded as less than 0.5%; in data set [4] (after drying at 130° C. for several hours, at 25° C.) it was 0.6%. In addition, the equilibrium moisture in data set [4] is less than 1%.
As to `[Ca+2].[Cl-].[Cl-]` [calcium chloride], in data set [2], the “weight increase (%) with storage at 15% relative humidity/25° C.” value is recorded as 45.9%. The compound also had a drying loss in data set [3] (setting [6]) of 3.4%. For the same compound, the “drying loss at 130° C./30 min” value in data set [3] came to 0.02. Moreover, in data set [4] (setting [7]), the equilibrium moisture content is given as less than 0.5%. The same compound yielded an equilibrium moisture in data set [4] of less than 1%.

The values above are taken from patent publication US20260083677A1, “ACTIVE INGREDIENT CONTAINING STABILISED SOLID MEDICINAL FORMS AND METHODS FOR THE PRODUCTION THEREOF” (ASTELLAS PHARMA INC., priority 2006, published 2026).
